From US8604023B2, “1,4-benzodiazepinone compounds and their use in treating cancer” (The Regents of the University of Michigan, priority 2009, dated 2013)
pEC50: −log10 of the molar value.

What was measured:
Ramos cells = assay: cytotoxicity in Ramos cells; assay type: cell-based; details: Homo sapiens
Experimental: The compounds listed in Table 5 were tested for cytotoxicity in Ramos cells. The assay was conducted as described in K. M. Johnson et al. Chemistry & Biology 2005, 12, 485-496.

A549/ATCC = assay: cancer cell growth inhibition (SRB); assay type: cell-based, human; details: Non-Small Cell Lung Cancer
HT29 = assay: cancer cell growth inhibition (SRB); assay type: cell-based, human; details: Colon Cancer
KM12 = assay: cancer cell growth inhibition (SRB); assay type: cell-based, human; details: Colon Cancer
BT-549 = assay: cancer cell growth inhibition (SRB); assay type: cell-based, human; details: Breast Cancer
HS 578T = assay: cancer cell growth inhibition (SRB); assay type: cell-based, human; details: Breast Cancer
MDA-MB-231/ATCC = assay: cancer cell growth inhibition (SRB); assay type: cell-based, human; details: Breast Cancer
MDA-MB-435 = assay: cancer cell growth inhibition (SRB); assay type: cell-based, human; details: Breast Cancer
MDA-MB-468 = assay: cancer cell growth inhibition (SRB); assay type: cell-based, human; details: Breast Cancer
Description: The compounds described herein can be tested for activity against various forms of cancer by testing for inhibition of cancer cell growth using in vitro assays. For example, compounds V-23 and V-38 (See Table 5 in Example 26) where tested for efficacy in inhibiting the growth of human cancer cells using the general procedure described below. The test evaluated compound activity for inhibiting cancer cell growth in over 50 cancer cell lines, which included non-small cell lung cancer, colon cancer, breast cancer, ovarian cancer, leukemia, renal cancer, melanoma, prostate cancer, and cancer of the central nervous system tissue. […]
Following addition of the test compound, the plates are incubated for an additional 48 h at 37° C., 5% CO2, 95% air, and 100% relative humidity. […] Bound stain is then solubilized with 10 mM trizma base, and the absorbance is read on an automated plate reader at a wavelength of 515 nm. […] Using seven absorbance measurements [time zero, (Tz), control growth, (C), and test growth in the presence of drug at the five concentration levels (Ti)], the percentage growth is calculated at each of the drug concentrations levels.
The percentage of growth inhibition caused by the test compounds on the cancer cell lines can be calculated using the following formulae: [(Ti−Tz)/(C−Tz)]×100 for concentrations for which Ti≧Tz [(Ti−Tz)/Tz]×100 for concentrations for which Ti<Tz

OVCAR-3 = assay: cancer cell growth inhibition (SRB); assay type: cell-based, human; details: Ovarian Cancer
K-562 = assay: cancer cell growth inhibition (SRB); assay type: cell-based, human; details: Leukemia
RPMI-8226 = assay: cancer cell growth inhibition (SRB); assay type: cell-based, human; details: Leukemia
786-0 = assay: cancer cell growth inhibition (SRB); assay type: cell-based, human; details: Renal Cancer
ACHN = assay: cancer cell growth inhibition (SRB); assay type: cell-based, human; details: Renal Cancer
SN12C = assay: cancer cell growth inhibition (SRB); assay type: cell-based, human; details: Renal Cancer
TK-10 = assay: cancer cell growth inhibition (SRB); assay type: cell-based, human; details: Renal Cancer
UO-31 = assay: cancer cell growth inhibition (SRB); assay type: cell-based, human; details: Renal Cancer
LOXIMVI = assay: cancer cell growth inhibition (SRB); assay type: cell-based, human; details: Melanoma
SK-MEL-5 = assay: cancer cell growth inhibition (SRB); assay type: cell-based, human; details: Melanoma
UACC-62 = assay: cancer cell growth inhibition (SRB); assay type: cell-based, human; details: Melanoma
SF-539 = assay: cancer cell growth inhibition (SRB); assay type: cell-based, human; details: CNS Cancer
SNB-19 = assay: cancer cell growth inhibition (SRB); assay type: cell-based, human; details: CNS Cancer
SNB-75 = assay: cancer cell growth inhibition (SRB); assay type: cell-based, human; details: CNS Cancer

CN1C(=O)C(Cc2ccc3ccccc3c2)N=C(c2cn[nH]c2)c2cc(Cl)ccc21 (centres unmarked) [Compound V-38]
pEC50 (Ramos cells): ≥ 5.30 | growth inhibition of the cancer cells (A549/ATCC): ++ (40%-75% growth inhibition of the cancer cells) | growth inhibition of the cancer cells (HT29): + (less than 40% growth inhibition of the cancer cells) | growth inhibition of the cancer cells (KM12): +++ (at least 75% growth inhibition of the cancer cells) | growth inhibition of the cancer cells (BT-549): +++ (at least 75% growth inhibition of the cancer cells) | growth inhibition of the cancer cells (HS 578T): + (less than 40% growth inhibition of the cancer cells) | growth inhibition of the cancer cells (MDA-MB-231/ATCC): + (less than 40% growth inhibition of the cancer cells) | growth inhibition of the cancer cells (MDA-MB-435): + (less than 40% growth inhibition of the cancer cells) | growth inhibition of the cancer cells (MDA-MB-468): ++ (40%-75% growth inhibition of the cancer cells) | growth inhibition of the cancer cells (OVCAR-3): +++ (at least 75% growth inhibition of the cancer cells) | growth inhibition of the cancer cells (K-562): + (less than 40% growth inhibition of the cancer cells) | growth inhibition of the cancer cells (RPMI-8226): + (less than 40% growth inhibition of the cancer cells) | growth inhibition of the cancer cells (786-0): +++ (at least 75% growth inhibition of the cancer cells) | growth inhibition of the cancer cells (ACHN): +++ (at least 75% growth inhibition of the cancer cells) | growth inhibition of the cancer cells (SN12C): ++ (40%-75% growth inhibition of the cancer cells) | growth inhibition of the cancer cells (TK-10): +++ (at least 75% growth inhibition of the cancer cells) | growth inhibition of the cancer cells (UO-31): +++ (at least 75% growth inhibition of the cancer cells) | growth inhibition of the cancer cells (LOXIMVI): +++ (at least 75% growth inhibition of the cancer cells) | growth inhibition of the cancer cells (SK-MEL-5): +++ (at least 75% growth inhibition of the cancer cells) | growth inhibition of the cancer cells (UACC-62): +++ (at least 75% growth inhibition of the cancer cells) | growth inhibition of the cancer cells (SF-539): +++ (at least 75% growth inhibition of the cancer cells) | growth inhibition of the cancer cells (SNB-19): ++ (40%-75% growth inhibition of the cancer cells) | growth inhibition of the cancer cells (SNB-75): +++ (at least 75% growth inhibition of the cancer cells)
